Results published in patent US20230041996A1, “CALCIUM-SENSING RECEPTOR AGONIST COMPOUND AND APPLICATION THEREOF” (BEIJING TUO JIE BIOPHARMACEUTICAL CO. LTD., priority 2019, published 2023).
Square brackets hold non-standard residues; d marks the D form. Peptide text beside a SMILES is read from it. * marks the point of attachment. Cys(free,S-linked) = N[C@@H](CS*)C(=O)O; d2Thi = N[C@H](Cc1cccs1)C(=O)O; dAbu = CC[C@@H](N)C(=O)O

What was measured:
[1] = tested on: normal rats (Sprague Dawley); assay: In vivo efficacy in normal rat model after a single dose (plasma parathyroid hormone, serum calcium); conditions: 3 mg/kg intravenous single dose; for serum calcium level: FIG. 3; for plasma parathyroid hormone level: within 4 h, FIG. 2
Text: 3.4 Evaluation of In Vivo Efficacy of Some of the Compounds Disclosed Herein in a Normal Rat Model after a Single Dose 3.4.1 Objective: To Evaluate the Efficacy of the Test Compounds in Reducing Plasma Parathyroid Hormone Levels after a Single Dose in a Normal Rat Model.
SPF normal adult rats (Sprague Dawley, or SD) with weight of 250-350 g were fed with normal diet in an animal room for 7 days. Rats were randomized into groups of 6, half female and half male, and numbered. One day before the start of treatment, 540 μL of blood was collected from each rat, and the plasma parathyroid hormone level and the serum calcium concentration were measured as baseline. The plasma was separated by K2-EDTA anticoagulation. Blood was collected through jugular vein and preserved on ice after collection. The whole blood was centrifuged at 6,800 rpm for 6 minutes at 2-8° C. The supernatant, i.e., the plasma, was collected and preserved at 2-8° C. For serum separation, blood was collected through jugular vein, let stand at room temperature for 1 h, and centrifuged at room temperature at 3,500 rpm for 10 min. The supernatant, i.e., the serum, was collected and preserved at room temperature. The animals were fasted overnight with free access to water the day before treatment. The day after blood sampling, example compounds 13, 17, 31 and etelcalcetide (AMG-416) were dissolved in a phosphate buffered saline (PBS, Gibco). The rats were intravenously administered with example compounds 13, 17, 31 or etelcalcetide 3 mg/kg or an equal volume of PBS buffer. Subsequently, blood samples were collected as per the following procedures for measuring the parameters. 100 μL of blood was collected at 1 h, 2 h and 4 h post-dose, and the plasma was separated according to the procedures above. The plasma parathyroid hormone levels were measured using the Rat Intact PTH ELISA Kit (Quidel—Immunotopics, Cat. #: 60-2500; ELISA: Enzyme-linked immunosorbent assay) according to the kit instructions. The detailed procedures are as follows: using the streptavidin-preplated reaction strips provided in the kit, 25 μL of reference standard, control or plasma samples were added to the wells. Biotinylated rat parathyroid hormone antibody and rat parathyroid hormone/HRP binding antibody were mixed at a ratio of 1:1, and 100 μL of the mixed solution was added to each well. The reaction strip was sealed with a sealing film, wrapped with an aluminum foil for storage in dark, and shaken on a horizontal shaker at room temperature for 3 h at a rotation speed of 220 rpm. The solutions in the wells were discarded. 350 μL of cleaning working solution was added to the wells for washing and then discarded; 5 washes were performed with the same procedures. Finally the wells were dried. To each well was added 150 μL of horseradish peroxidase ELISA substrate. The reaction strip was sealed with a sealing film, wrapped with an aluminum foil for storage in dark, and shaken on a horizontal shaker at room temperature for 30 min at a rotation speed of 180-220 rpm. 100 μL of ELISA terminating solution was added to each well, and the strip was shaken at 180-220 rpm for 1 min on a horizontal shaker at room temperature. The absorbance at 450 nm in each well was detected within 10 min after the addition of the ELISA terminating solution, while the absorbance at 620 nm was subtracted as background. A mixture of horseradish peroxidase ELISA substrate 150 μL and ELISA terminating solution 100 μL was used as the blank control in the absorbance detection. A standard curve according to the absorbance of the reference standard was plotted, and the actual plasma parathyroid hormone concentration was calculated according to the absorbance of other samples and the standard curve. The determination of the serum calcium concentration was conducted according to the procedures of the relevant kit.

5/6 nephrectomized rats = assay: In vivo efficacy in 5/6 nephrectomized rat model after continuous administration (plasma parathyroid hormone, serum calcium)
Text: 3.5.1 Objective: to evaluate the efficacy of some of the compounds disclosed herein in reducing plasma parathyroid hormone level and serum calcium level after continuous administration in a 5/6 nephrectomized rat model.
The rats were adapted. After anesthesia, ⅔ of the left kidney was surgically resected, and after 1 week of recovery, the right kidney was resected to establish the 5/6 nephrectomized rat model. After the second resection, the animals were normally fed for 2 weeks, tested for creatinine (CREA) and plasma parathyroid hormone level, and randomized as per the parathyroid hormone level into 4 groups of 10, including normal saline group, compound 17—low dose group, compound 17—high dose group and etelcalcetide group. After randomization, the normal saline group, compound 17—low dose group, compound 17—high dose group and etelcalcetide group were respectively administered with 1 dose of normal saline, 1 mg/kg of compound 17, 2 mg/kg of compound 17 and 1 mg/kg of etelcalcetide through the tail vein daily for 28 days. During the treatment period, parameters such as animal weight, plasma parathyroid hormone level and serum calcium were detected. The first day of treatment was taken as day 1.

SMILES	serum calcium level [1]	plasma parathyroid hormone level [1]	plasma parathyroid hormone level compared with the normal saline group (5/6 nephrectomized rats; 1 mg/kg and 2 mg/kg daily via tail vein for 28 days)	suppression of plasma parathyroid hormone level versus etelcalcetide at the same dose (5/6 nephrectomized rats; 1 mg/kg, 6 h and 16 h post-dose, FIG. 4)	serum calcium reduction (5/6 nephrectomized rats; after administration on days 1, 14 and 28)	persistence to reduce serum calcium levels versus etelcalcetide at the same dose (5/6 nephrectomized rats; day 28)	maximal reduction in serum calcium versus etelcalcetide at the same dose (5/6 nephrectomized rats; days 1, 14 and 28, FIG. 5)	extent of serum calcium reduction with the period of treatment (5/6 nephrectomized rats; minimum of serum calcium on days 14 and 28 compared to day 1)
CC(=O)N[C@H](CSSC[C@H](N)C(=O)O)C(=O)N[C@H](CCCNC(=N)N)C(=O)N[C@H](CCCNC(=N)N)C(=O)N[C@H](Cc1cccs1)C(=O)N[C@H](CCCNC(=N)N)C(=O)N[C@H](C)C(=O)N[C@H](CCCNC(=N)N)C(N)=O [Compound 13, Ac-c(C)-r-r-(D-2-Thi)-r-a-r-NH2] (Ac-[dC](Cys(free,S-linked))[dR][dR][d2Thi][dR][dA][dR]-NH2)	corresponding reduction	completely reduced						
CC[C@@H](NC(=O)[C@@H](CCCNC(=N)N)NC(=O)[C@@H](CCCNC(=N)N)NC(=O)[C@@H](CSSC[C@H](N)C(=O)O)NC(C)=O)C(=O)N[C@H](CCCNC(=N)N)C(=O)N[C@H](CO)C(=O)N[C@H](CCCNC(=N)N)C(N)=O [Compound 31, Ac-c(C)-r-r-(D-Abu)-r-s-r-NH2] (Ac-[dC](Cys(free,S-linked))[dR][dR][dAbu][dR][dS][dR]-NH2)	corresponding reduction	completely reduced						
CC[C@@H](NC(=O)[C@@H](CCCNC(=N)N)NC(=O)[C@@H](CCCNC(=N)N)NC(=O)[C@@H](CSSC[C@H](N)C(=O)O)NC(C)=O)C(=O)N[C@H](CCCNC(=N)N)C(=O)N[C@H](C)C(=O)N[C@H](CCCNC(=N)N)C(N)=O [Compound 17, Ac-c(C)-r-r-(D-Abu)-r-a-r-NH2] (Ac-[dC](Cys(free,S-linked))[dR][dR][dAbu][dR][dA][dR]-NH2)	corresponding reduction	completely reduced	reduced the plasma parathyroid hormone level in rats in a dose dependent manner	slightly superior or comparable magnitude to that of etelcalcetide	reversible serum calcium reduction	superior and significantly different	comparable to etelcalcetide	did not increase with the period of treatment
